Reference: patent publication US11529361B2, “Halogenated salicylanilides for treating Clostridium infections” (UNION therapeutics A/S, priority 2015, dated 2022)
Converted amounts (≈) assume the structure as drawn. Read-outs that look alike come from different tables or passages of the source.

Assays:
[1] = test system: C. difficile clinical isolates; test: MIC determination by microbroth dilution per CLSI guideline (Example 1); type: cell-based, Clostridium difficile; conditions: Clostridioides difficile
[2] = test system: 24 clinical isolate strains of C. difficile; test: Additional MIC determinations, antibacterial activity by OD600 (Example 3); type: cell-based, Clostridium difficile
[3] = test system: rats; conditions: p.o., cited from earlier work
[4] = test system: mice; conditions: p.o.; cited from earlier work
[5] = test system: Clostridium difficile 7-6011209; type: cell-based
[6] = Table 3, strain 7-6011209, read-out: C. difficile Strain 7-6011209 MIC
[7] = Table 3, strain 12055, read-out: C. difficile Strain 12055 MIC

Structure (SMILES): O=C(Nc1ccc(Oc2ccc(Cl)cc2)c(Cl)c1)c1cc(I)cc(I)c1O [Rafoxanide]
- MIC ([1]; read-out: C. difficile Strain 7-6011209 MIC): < 0.08 µg/mL
- MIC ([1]; read-out: C. difficile Strain 12055 MIC): < 0.08 µg/mL
- MIC ([2]; strain 7-5085357 (ST028)): 0.016 µg/mL (≈ 0.0256 µM)
- MIC ([2]; strain 7-6011209 (ST002)): < 0.008 µg/mL
- MIC ([2]; strain 7-6778909 (ST016)): < 0.008 µg/mL
- MIC ([2]; strain 7-6854508 (ST013)): < 0.008 µg/mL
- MIC ([2]; strain 7-6870430 (ST001)): < 0.008 µg/mL
- MIC ([2]; strain 7-7104022 (ST103)): < 0.008 µg/mL
- MIC ([2]; strain 7-7116411 (ST005)): 0.031 µg/mL (≈ 0.0495 µM)
- MIC ([2]; strain 7-7124449 (ST009)): 0.031 µg/mL (≈ 0.0495 µM)
- MIC ([2]; strain 7-7149204 (ST006)): < 0.008 µg/mL
- MIC ([2]; strain 7-7150288 (ST003)): < 0.008 µg/mL
- MIC ([2]; strain 7-7150318 (ST059)): < 0.008 µg/mL
- MIC ([2]; strain 7-7150628 (ST034)): 0.31 µg/mL (≈ 0.495 µM)
- MIC ([2]; strain 7-7150997 (ST049)): < 0.008 µg/mL
- MIC ([2]; strain 7-7154992 (ST139)): 0.016 µg/mL (≈ 0.0256 µM)
- MIC ([2]; strain 7-7200552 (ST017)): 0.063 µg/mL (≈ 0.101 µM)
- MIC ([2]; strain 12055): < 0.008 µg/mL
- MIC ([2]; strain 12060): 0.031 µg/mL (≈ 0.0495 µM)
- MIC ([2]; strain 12061): 0.016 µg/mL (≈ 0.0256 µM)
- MIC ([2]; strain 12062): 0.016 µg/mL (≈ 0.0256 µM)
- MIC ([2]; strain 12063): < 0.008 µg/mL
- MIC ([2]; strain 12064): < 0.008 µg/mL
- MIC ([2]; strain 12065): 0.016 µg/mL (≈ 0.0256 µM)
- MIC ([2]; strain 12066): 0.063 µg/mL (≈ 0.101 µM)
- LD50, median ([3]; median over studies): > 1490 mg/kg
- LD50 [4]: 232 to 300 mg/kg
- formation of heat-resistant spores over time [5]: suppressed formation of spores throughout the 96 hour study period

Structure (SMILES): CC(=O)Oc1c(I)cc(I)cc1C(=O)Nc1ccc(Cl)cc1 [Clioxanide]
- MIC [1, 6]: 0.031 µg/mL (≈ 0.0572 µM)
- MIC [1, 7]: < 0.08 µg/mL
- MIC ([2]; strain 7-5085357 (ST028)): < 0.008 µg/mL
- MIC ([2]; strain 7-6011209 (ST002)): < 0.008 µg/mL
- MIC ([2]; strain 7-6778909 (ST016)): < 0.008 µg/mL
- MIC ([2]; strain 7-6854508 (ST013)): < 0.008 µg/mL
- MIC ([2]; strain 7-6870430 (ST001)): < 0.008 µg/mL
- MIC ([2]; strain 7-7104022 (ST103)): < 0.008 µg/mL
- MIC ([2]; strain 7-7116411 (ST005)): 0.125 µg/mL (≈ 0.231 µM)
- MIC ([2]; strain 7-7124449 (ST009)): < 0.008 µg/mL
- MIC ([2]; strain 7-7149204 (ST006)): < 0.008 µg/mL
- MIC ([2]; strain 7-7150288 (ST003)): < 0.008 µg/mL
- MIC ([2]; strain 7-7150318 (ST059)): < 0.008 µg/mL
- MIC ([2]; strain 7-7150628 (ST034)): < 0.008 µg/mL
- MIC ([2]; strain 7-7150997 (ST049)): < 0.008 µg/mL
- MIC ([2]; strain 7-7154992 (ST139)): < 0.008 µg/mL
- MIC ([2]; strain 7-7200552 (ST017)): < 0.008 µg/mL
- MIC ([2]; strain 7-7363761 (ST008)): < 0.008 µg/mL
- MIC ([2]; strain 12055): < 0.008 µg/mL
- MIC ([2]; strain 12060): < 0.008 µg/mL
- MIC ([2]; strain 12061): < 0.008 µg/mL
- MIC ([2]; strain 12062): < 0.008 µg/mL
- MIC ([2]; strain 12063): < 0.008 µg/mL
- MIC ([2]; strain 12064): < 0.008 µg/mL
- MIC ([2]; strain 12065): < 0.008 µg/mL
- MIC ([2]; strain 12066): 0.063 µg/mL (≈ 0.116 µM)

Structure (SMILES): Cc1cc(C(C#N)c2ccc(Cl)cc2)c(Cl)cc1NC(=O)c1cc(I)cc(I)c1O (centres unmarked) [Closantel]
- MIC [1, 6]: 0.125 µg/mL (≈ 0.189 µM)
- MIC [1, 7]: 0.125 µg/mL (≈ 0.189 µM)
- MIC ([2]; strain 7-5085357 (ST028)): 0.016 µg/mL (≈ 0.0241 µM)
- MIC ([2]; strain 7-6011209 (ST002)): 0.016 µg/mL (≈ 0.0241 µM)
- MIC ([2]; strain 7-6778909 (ST016)): 0.031 µg/mL (≈ 0.0468 µM)
- MIC ([2]; strain 7-6854508 (ST013)): 0.25 µg/mL (≈ 0.377 µM)
- MIC ([2]; strain 7-6870430 (ST001)): 0.031 µg/mL (≈ 0.0468 µM)
- MIC ([2]; strain 7-7104022 (ST103)): 0.25 µg/mL (≈ 0.377 µM)
- MIC ([2]; strain 7-7116411 (ST005)): 0.25 µg/mL (≈ 0.377 µM)
- MIC ([2]; strain 7-7124449 (ST009)): 0.25 µg/mL (≈ 0.377 µM)
- MIC ([2]; strain 7-7149204 (ST006)): 0.31 µg/mL (≈ 0.468 µM)
- MIC ([2]; strain 7-7150288 (ST003)): 0.031 µg/mL (≈ 0.0468 µM)
- MIC ([2]; strain 7-7150318 (ST059)): 0.63 µg/mL (≈ 0.95 µM)
- MIC ([2]; strain 7-7150628 (ST034)): 0.063 µg/mL (≈ 0.095 µM)
- MIC ([2]; strain 7-7150997 (ST049)): 0.016 µg/mL (≈ 0.0241 µM)
- MIC ([2]; strain 7-7154992 (ST139)): 0.063 µg/mL (≈ 0.095 µM)
- MIC ([2]; strain 7-7200552 (ST017)): 0.5 µg/mL (≈ 0.754 µM)
- MIC ([2]; strain 12055): 0.063 µg/mL (≈ 0.095 µM)
- MIC ([2]; strain 12060): 0.125 µg/mL (≈ 0.189 µM)
- MIC ([2]; strain 12061): 0.063 µg/mL (≈ 0.095 µM)
- MIC ([2]; strain 12062): 0.063 µg/mL (≈ 0.095 µM)
- MIC ([2]; strain 12063): 0.031 µg/mL (≈ 0.0468 µM)
- MIC ([2]; strain 12064): 0.031 µg/mL (≈ 0.0468 µM)
- MIC ([2]; strain 12065): 0.063 µg/mL (≈ 0.095 µM)
- MIC ([2]; strain 12066): 0.5 µg/mL (≈ 0.754 µM)
- LD50 [3]: 262 to 342 mg/kg
